Data on 1 compound can be found in patent publication US9594084B2, “Phosphorylation of histones and uses thereof” (H. LEE MOFFITT CANCER CENTER AND RESEARCH INSTITUTE, priority 2012, dated 2017).

Molecules are shown by their SMILES.

For one experiment, the system named is 5-hmC levels. The experiment in a line: Slot blot of genomic DNA with 5-hmC and 5-mC antibodies. It counts as cell-based. As to the method: SBC12, T98G and HEK293 cells were treated with WEE1 inhibitor, MK1775 (0.6 μM, 24 hr). Blots were incubated with 5-hmC and 5-mC antibodies.
Genomic DNA was isolated, blotted by slot blot, followed by immunoblotting with 5-hmC and 5-mC antibodies. […] 5-hmC containing plasmid DNA (Zymo research) was used as positive control.

Experiment [1] concerns pY37-H2B marks within IDH2. Put plainly: ChIP-qPCR of pY37-H2B marks within IDH2 in GBM derived cell lines. Type of experiment: cell-based, human. The note with it: U87. The text has this:
FIG. 44a-44f show H2B Tyr37-phosphorylation marks are deposited within IDH2.
To validate the role of WEE1 in IDH2 marking, chromatin from GBM derived cell line U87 was immunoprecipitated using the pY37-H2B antibody followed by qPCR. […] Similar data was obtained with another human GBM derived cell lines T98G (FIG. 44E).

Experiment [2] addresses T1, WEE1 (Homo sapiens, UniProt P30291). Put plainly: H4 Tyr88 peptide ELISA in vitro kinase assay with purified WEE1. Type of experiment: biochemical. Details: GST; purchased Invitrogen. The following applies: read at 450 nm. As to the method: Biotinylated unphosphorylated and Tyr88-phosphorylated H4 peptides were immobilized on streptavdin 96-well plates. […] ELISA was performed as described in text.
WEE1 and Ack1 are two non-receptor tyrosine kinases or NRTKs that have known nuclear functions. To determine whether WEE1 and Ack1 can directly target H4 for Tyr88-phosphorylation, this study performed in vitro kinase assay. In brief, the Streptavidin coated 96-well plates (R&D systems) were incubated with biotinylated H4-derived peptide […] (SEQ ID NO: 64) for 1 hour. The plates were washed and the purified WEE1 or Ack1 were added in kinase buffer (20 mM HEPES, 150 mM NaCl, 0.5% Triton X-100, 10% Glycerol, phosphatase and protease inhibitors) containing ATP and MgCl2. After 2 hours of incubation, plates were washed with phosphate buffered saline containing 0.1% Tween 20 (PBST) and blocked in 3% BSA. The pY88-H4 antibodies (at 1:500 dilution) were added and incubated for 1 hour. Unbound antibodies were washed and HRP-conjugated anti-mouse secondary Antibodies (1:2000) were added. Magnitude of phosphorylation was detected using developer solution (OPD tablets, Sigma) and the plates were read at 450 nm. As a negative control, no kinase and no peptide reactions were used. The biotinylated phosphopeptide […]p[…] (SEQ ID NO: 65) was used as a positive control.

In experiment [3] the target is T1, WEE1. The experiment in a line: pTyr37-H2B immunoprecipitation/immunoblot in synchronized H1975 cells. Details: endogenous in cells; host or cells: H1975. It counts as cell-based. The note with it: 6.30 hours post-release, 0.3 μM. As to the method: FIG. 13A is an immunoblot showing lysates from synchronized MEFs immunoprecipitated with pTyr37-H2B antibodies followed by immunoblotting with pTyr37-H2B antibody (top panel) or H2B antibody (bottom panel). FIG. 13B is an immunoblot showing cell lysates 6.30 hours post-release from H1975 cells synchronized by double thymidine alone (first column) or with 0.31 μM (second column), 0.62 μM (third column) and 1.25 μM (fourth column) MK1775 WEE1 inhibitor that were immunoprecipitated with pTyr37-H2B antibodies followed by immunoblotting with pTyr37-H2B, H2B, pTyr15-Cdc2, or Cdc2 antibodies. FIG. 13C is an immunoblot showing lysates collected at 0 and 6.30 hours post-release from synchronized MEFs transfected with control (first two columns) or WEE1 (last two columns) siRNAs that were immunoprecipitated with pTyr37-H2B antibodies followed by immunoblotting with pTyr37-H2B (top panel), H2B (second panel), WEE1 (third panel), or PTyr15-Cdc2 (bottom panel) antibodies. FIG. 13D is an immunoblot showing equimolar amounts of purified WEE1 (last three columns) and H2B (first three columns) proteins incubated in the presence (third column) or absence of WEE1 inhibitor (MK1775, 0.625 μM) for 1 hour at 30° C. and immunoblotted with pTyr37-H2B (top panel), H2B (middle panel), and WEE1 (bottom panel) antibodies. […]
On the technique in general: A western blot detects proteins with antibodies after separation by electrophoresis.

T1 sequence (P30291 whole entry): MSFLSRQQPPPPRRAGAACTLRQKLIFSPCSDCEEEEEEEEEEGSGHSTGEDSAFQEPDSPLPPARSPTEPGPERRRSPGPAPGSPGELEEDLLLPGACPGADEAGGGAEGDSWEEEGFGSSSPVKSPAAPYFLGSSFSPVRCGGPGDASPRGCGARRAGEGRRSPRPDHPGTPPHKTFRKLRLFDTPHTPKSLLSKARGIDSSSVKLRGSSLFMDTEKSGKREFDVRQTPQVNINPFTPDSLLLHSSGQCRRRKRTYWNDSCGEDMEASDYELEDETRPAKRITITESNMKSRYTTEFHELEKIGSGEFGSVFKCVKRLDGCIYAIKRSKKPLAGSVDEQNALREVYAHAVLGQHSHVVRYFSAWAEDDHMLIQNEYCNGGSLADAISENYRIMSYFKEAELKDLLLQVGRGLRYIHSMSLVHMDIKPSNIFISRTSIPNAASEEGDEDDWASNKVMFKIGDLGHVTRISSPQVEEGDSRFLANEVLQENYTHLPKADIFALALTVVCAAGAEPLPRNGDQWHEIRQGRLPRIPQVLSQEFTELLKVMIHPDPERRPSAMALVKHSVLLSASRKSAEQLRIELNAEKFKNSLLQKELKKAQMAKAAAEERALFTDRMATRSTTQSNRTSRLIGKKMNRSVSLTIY

For `C=CCn1c(=O)c2cnc(Nc3ccc(N4CCN(C)CC4)cc3)nc2n1-c1cccc(C(C)(C)O)n1` [MK-1775], the 5-hmC levels entry in the experiment with 5-hmC levels (HEK293 cells, 0.6 μM, 24 hr) is “remained unchanged”; in the experiment with 5-hmC levels (SBC12 melanoma derived cell line, 0.6 μM, 24 hr) it was “significant upregulation”; in the experiment on 5-hmC levels (T98G GBM-derived cells, 0.6 μM, 24 hr), “significant upregulation”; with 5-hmC levels (summary statement), “restored”. Also, the 5-mC levels entry with 5-hmC levels (immunoblotting with 5-mC antibodies, 0.6 μM, 24 hr) is listed as “concomitant decrease”. In addition, the “pY37-H2B marks within IDH2” value in experiment [1] was “completely erased”. Moreover, the “H4 Tyr88-phosphorylation by WEE1” value on WEE1 [2] was “significantly decreased”. For the same compound, at WEE1 [3], the “pTyr37-phosphorylation of H2B” value is “complete loss”.
